This is an account of results in ChEMBL document CHEMBL4052585 (J Med Chem, 2017).

The logD is lipophilicity at a set pH, counting ionised and neutral species. By Ki is commonly meant the dissociation constant of the complex between target and ligand, obtained from inhibition or displacement. Broadly, the IC50 is the midpoint of a concentration-inhibition curve. Usually Kd stands for a measure of binding affinity in units of concentration. By clearance is commonly meant a measure of how efficiently the substance is removed, as volume per time. One may read the Vd as a proportionality between amount in the body and measured concentration, not a real space. As a reminder, the Papp is a coefficient for how fast a substance crosses the barrier.

A short description of data set [1]: physchem. The note with it: buffer, pH 7.4.
The target of data set [2] is T1, Mitogen-activated protein kinase kinase kinase 14 (Homo sapiens, UniProt Q99558). The data set is described as follows: Inhibition of NIK (unknown origin) after 1 to 2 hrs by ADP-FP assay.
T1 sequence (Q99558 whole entry): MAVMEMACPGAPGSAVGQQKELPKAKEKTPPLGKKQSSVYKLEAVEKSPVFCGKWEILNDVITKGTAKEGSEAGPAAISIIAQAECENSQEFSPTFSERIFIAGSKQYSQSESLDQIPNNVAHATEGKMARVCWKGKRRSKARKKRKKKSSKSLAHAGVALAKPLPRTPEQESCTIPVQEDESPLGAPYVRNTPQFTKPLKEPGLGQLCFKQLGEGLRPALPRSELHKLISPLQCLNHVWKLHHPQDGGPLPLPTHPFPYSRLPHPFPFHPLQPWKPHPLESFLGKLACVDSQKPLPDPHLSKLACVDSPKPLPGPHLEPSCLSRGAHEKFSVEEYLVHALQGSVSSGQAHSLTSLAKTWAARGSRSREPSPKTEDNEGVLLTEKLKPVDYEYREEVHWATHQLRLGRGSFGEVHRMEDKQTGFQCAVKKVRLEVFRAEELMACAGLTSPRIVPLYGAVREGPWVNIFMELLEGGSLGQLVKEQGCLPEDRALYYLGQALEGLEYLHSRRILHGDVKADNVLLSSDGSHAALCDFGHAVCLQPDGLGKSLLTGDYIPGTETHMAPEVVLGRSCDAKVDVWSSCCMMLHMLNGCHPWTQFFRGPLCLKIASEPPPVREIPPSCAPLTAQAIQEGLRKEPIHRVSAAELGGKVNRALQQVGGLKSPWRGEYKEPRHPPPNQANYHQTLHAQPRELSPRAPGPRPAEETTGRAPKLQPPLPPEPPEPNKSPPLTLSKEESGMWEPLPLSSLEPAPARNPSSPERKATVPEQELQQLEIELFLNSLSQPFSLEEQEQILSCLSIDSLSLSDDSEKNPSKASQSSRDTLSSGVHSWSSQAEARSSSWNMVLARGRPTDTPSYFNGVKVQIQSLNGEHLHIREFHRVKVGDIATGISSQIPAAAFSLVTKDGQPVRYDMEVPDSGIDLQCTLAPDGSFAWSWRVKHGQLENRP
Data set [3] has as its target PI3-kinase p110-delta/p85-alpha (Homo sapiens, UniProt O00329). The data set is described as follows: Inhibition of N-terminal His6-tagged recombinant full-length human p110delta/untagged recombinant full length human p85alpha expressed in baculovirus infected Sf21 insect cells using PIP2:3PS lipid substrate after 120 mins by ADP-Glo assay.
In data set [4] the target is T1, Mitogen-activated protein kinase kinase kinase 14. The data set is described as follows: Inhibition of NIK in human HeLa cells assessed as decrease in antilymphotoxin-beta receptor antibody-stimulated p52 translocation from cytoplasm to nucleus after 5 hrs. It counts as cell-based.
Data set [5] deals with HEK293. The data set is described as follows: Cytotoxicity against HEK293 cells assessed as effect on cell viability after 24 hrs by HSV-TK reporter assay. It is filed as cell-based. The note with it: Homo sapiens, HEK293, 24 h. A general note: In a reporter assay the amount or activity of a reporter protein is the signal.
Data set [6] deals with T1, Mitogen-activated protein kinase kinase kinase 14. The experiment in a line: Inhibition of NIK (unknown origin) expressed in HEK293 cells assessed as decrease in NFkappaB signal after 24 hrs by dual glo luciferase reporter gene assay. It counts as cell-based.
The target is the same in data set [7]. The experiment in a line: Binding affinity to NIK (unknown origin) by SPR method. On the technique in general: SPR reads the build-up and loss of mass on a sensor chip optically.
A short description of data set [8]: Plasma clearance in cynomolgus monkey. It is filed as ADME, Macaca fascicularis.
Data set [9] can be described thus: Volume of distribution in Sprague-Dawley rat. It is filed as ADME. The conditions noted are these: in vivo.
Data set [10] is described as follows: Volume of distribution in cynomolgus monkey. The note with it: in vivo. It is filed as ADME, Macaca fascicularis.
A short description of data set [11]: Apparent permeability across MDCK cells at 100 uM. It counts as ADME, cell-based, Canis lupus familiaris. The conditions noted are these: dog.
Data set [12] can be described thus: Plasma clearance in Sprague-Dawley rat. It counts as ADME.
Data set [13] in a line: Oral bioavailability in Sprague-Dawley rat at 5 mg/kg. It is filed as ADME, organism-based. The note with it: in vivo.
Data set [14] can be described thus: Protein binding in human plasma. It counts as ADME, cell-free. The conditions noted are these: read-out: PPB (converted).
Data set [15] in a line: Thermodynamic solubility of compound at pH 7.4. It is filed as physicochemical. The conditions noted are these: buffer, read-out: Therm_solubility.
A short description of data set [16]: Volume of distribution in beagle dog. The conditions noted are these: in vivo. It counts as ADME, Canis lupus familiaris.
Data set [17] can be described thus: Oral bioavailability in beagle dog at 5 mg/kg. The conditions noted are these: in vivo. It counts as ADME, organism-based, Canis lupus familiaris.
Data set [18] in a line: Plasma clearance in beagle dog. It is filed as ADME, Canis lupus familiaris.

Converted amounts (≈) assume the structure as drawn.

PI3-kinase p110-delta/p85-alpha, sequence (P27986 whole entry): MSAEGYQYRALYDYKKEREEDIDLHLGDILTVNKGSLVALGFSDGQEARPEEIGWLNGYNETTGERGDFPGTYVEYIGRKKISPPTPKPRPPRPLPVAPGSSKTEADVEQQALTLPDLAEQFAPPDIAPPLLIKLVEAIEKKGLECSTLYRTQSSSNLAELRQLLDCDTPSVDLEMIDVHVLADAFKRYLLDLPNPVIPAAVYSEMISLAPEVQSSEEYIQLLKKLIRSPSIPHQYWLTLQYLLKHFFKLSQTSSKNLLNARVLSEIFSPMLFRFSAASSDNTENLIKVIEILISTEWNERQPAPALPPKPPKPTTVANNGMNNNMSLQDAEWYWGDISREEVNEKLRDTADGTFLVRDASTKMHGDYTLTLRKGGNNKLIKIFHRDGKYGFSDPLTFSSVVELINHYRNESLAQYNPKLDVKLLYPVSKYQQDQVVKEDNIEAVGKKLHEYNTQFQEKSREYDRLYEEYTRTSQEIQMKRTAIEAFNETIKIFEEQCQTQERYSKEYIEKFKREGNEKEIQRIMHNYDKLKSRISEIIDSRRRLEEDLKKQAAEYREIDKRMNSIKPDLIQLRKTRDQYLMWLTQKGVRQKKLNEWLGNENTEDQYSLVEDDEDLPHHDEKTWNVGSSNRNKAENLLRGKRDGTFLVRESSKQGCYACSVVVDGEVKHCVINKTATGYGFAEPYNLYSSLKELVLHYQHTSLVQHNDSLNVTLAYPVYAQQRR
PI3-kinase p110-delta/p85-alpha, sequence (O00329 whole entry): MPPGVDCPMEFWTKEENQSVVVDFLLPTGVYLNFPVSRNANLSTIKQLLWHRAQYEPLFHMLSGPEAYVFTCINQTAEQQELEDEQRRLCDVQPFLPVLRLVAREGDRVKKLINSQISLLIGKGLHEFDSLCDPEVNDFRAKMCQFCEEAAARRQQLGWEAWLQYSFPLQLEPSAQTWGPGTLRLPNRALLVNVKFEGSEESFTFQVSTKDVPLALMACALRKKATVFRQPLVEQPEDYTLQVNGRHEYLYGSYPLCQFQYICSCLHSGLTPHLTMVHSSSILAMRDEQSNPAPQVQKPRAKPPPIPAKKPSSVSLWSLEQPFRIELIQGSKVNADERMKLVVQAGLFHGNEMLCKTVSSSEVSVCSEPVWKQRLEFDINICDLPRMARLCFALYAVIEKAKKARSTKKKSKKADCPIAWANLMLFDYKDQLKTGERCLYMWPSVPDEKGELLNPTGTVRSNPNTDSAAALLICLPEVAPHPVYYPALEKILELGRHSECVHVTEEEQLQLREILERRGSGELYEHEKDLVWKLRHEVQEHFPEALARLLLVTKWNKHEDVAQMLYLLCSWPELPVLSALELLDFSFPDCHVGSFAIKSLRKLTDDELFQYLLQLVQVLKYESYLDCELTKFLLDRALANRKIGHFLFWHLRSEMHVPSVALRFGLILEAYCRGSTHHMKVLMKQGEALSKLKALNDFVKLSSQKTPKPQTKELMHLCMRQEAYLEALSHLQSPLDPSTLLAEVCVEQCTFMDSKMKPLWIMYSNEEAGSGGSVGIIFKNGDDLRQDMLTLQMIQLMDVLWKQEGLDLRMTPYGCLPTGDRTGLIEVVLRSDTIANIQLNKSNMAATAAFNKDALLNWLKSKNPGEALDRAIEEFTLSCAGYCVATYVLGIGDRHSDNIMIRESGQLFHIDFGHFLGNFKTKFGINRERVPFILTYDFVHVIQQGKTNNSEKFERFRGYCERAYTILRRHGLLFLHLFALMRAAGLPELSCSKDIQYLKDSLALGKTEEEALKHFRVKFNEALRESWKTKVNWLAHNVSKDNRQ

`NC(=O)c1cn2c(n1)-c1cc(C#CC3(O)COC3)c(F)cc1OCC2`: in [1], the logD was 1.2. For the same compound, the Ki in [2] came out at 4280 nM.

In data set [1], `CN1CC[C@](O)(C#Cc2cc3c(cc2F)OCCn2cc(C(N)=O)nc2-3)C1=O` came in with a logD of 0.94.

For the compound `CC(C)(O)C#Cc1cc2c(cc1F)OCCn1c-2nc(C(N)=O)c1C1CC1`, the results for the Ki in data set [3] and in [2] were > 1000 nM and 41 nM, respectively. In data set [1], this compound gave a logD of 1.9.

Consider `CC(C)(O)C#Cc1cc2c(cc1F)C1CC(C1)n1cc(C(N)=O)nc1-2`, for which the values for the Ki in data set [3] and in data set [2] were > 1000 nM and 2.9 nM, respectively.

For the compound `C[C@@H]1Cn2cc(C(N)=O)nc2-c2cc(C#CC(C)(C)O)ccc2O1`, the Ki in data set [3] is > 1000 nM.

`NC(=O)c1ccc2c(n1)-c1sccc1CCO2` came in with a logD in [1] of 2.5. Moreover, the affinity in data set [2], expressed as Ki, was 1280 nM.

Take `C[C@H]1Cn2cc(C(N)=O)nc2-c2cc(C#CC(C)(C)O)ccc2O1`: the Ki in data set [3] is > 1000 nM.

As to `CN1CC[C@@](O)(C#Cc2cc3c(cc2F)OCCn2cc(C(N)=O)nc2-3)C1=O`, the logD in data set [1] was 0.74.

As for `Cc1c(C(N)=O)nc2n1CCOc1cc(F)c(C#CC(C)(C)O)cc1-2`, the Ki in data set [3] was > 1000 nM; in data set [2], 35.5 nM. The logD in data set [1] came out at 2.2.

Turning to `CC(C)(O)C#Cc1ccc2c(c1)-c1nc(C(N)=O)cn1CCO2`, the Ki in [3] worked out at 320 nM; in data set [2], 310 nM. In data set [1], this compound returned a log distribution coefficient (logD) of 1.4.

Take `Cc1cc([C@](C)(O)C#Cc2cc3c(cc2F)OCCn2cc(C(N)=O)nc2-3)no1`: in data set [3], the Ki came out at 47 nM. Besides, the IC50 is 607 nM in [4], > 20000 nM in data set [5] and 156 nM in data set [6]. Besides, the logD in [1] was 1.1.

`CC(C)(O)C#Cc1cc2c(cc1F)OCCn1cc(C(N)=O)nc1-2` showed a logD in data set [1] of 1.7. In [2], this compound showed a Ki of 36 nM.

Take `CC(C)(O)C#Cc1ccc2c(c1)-c1nc(C(N)=O)sc1CCO2`: the Ki in [3] was determined as 216 nM; in data set [2], 28 nM. Moreover, the logD in data set [1] turned out to be 2.4.

As for `CNC(=O)c1c(C(N)=O)nc2n1CCOc1cc(F)c(C#CC(C)(C)O)cc1-2`, the figures for the Ki in [3] and in data set [2] were > 1000 nM and 2 nM, respectively. Further, the logD in [1] is 2.5.

Consider `CC(C)(O)C#Cc1cc2c(cc1F)OCCn1c-2nc(C(N)=O)c1Cc1ccccc1F`, for which the Ki in data set [3] was > 1000 nM; in [2], 7.5 nM. Besides, in data set [1], the logD came out at 3.4.

Regarding `NC(=O)c1cn2c(n1)-c1cc(C#CC3(O)CCC3)c(F)cc1OCC2`, the logD in [1] came to 3.4. Also, in data set [2], the Ki was 20.2 nM.

`CC(C)(O)C#Cc1cc2c(cc1F)OCCn1c-2nc(C(N)=O)c1C#N`: the values for the Ki in data set [3] and in [2] were > 1000 nM and 201 nM, respectively. In data set [1], this compound came in with a logD of 1.6.

`CC(C)(O)C#Cc1cc2c(cc1F)OCCn1c-2nc(C(N)=O)c1-c1cn[nH]c1`: the Ki is > 1000 nM in data set [3] and 7 nM in data set [2]. For the same compound, in data set [1], the logD worked out at 1.8.

Take `CC(O)(C#Cc1cc2c(cc1F)OCCn1cc(C(N)=O)nc1-2)CF` (racemic): in data set [2], the Ki stood at 8.7 nM.

With `CN(C)C(=O)c1c(C(N)=O)nc2n1CCOc1cc(F)c(C#CC(C)(C)O)cc1-2`, the Ki in data set [3] is > 1000 nM. The compound also came in with a logD in data set [1] of 1.4.

Take `NC(=O)c1cccn1Cc1ccccc1Cl`: in data set [7], the Kd is 69000 nM.

In the case of `Cn1nccc1Cc1c(C(N)=O)nc2n1CCOc1cc(F)c(C#CC(C)(C)O)cc1-2`, the Ki in [3] was > 1000 nM; in data set [2] it was 9.9 nM.

Regarding `CC(C)(O)C#Cc1ccc2c(c1)-c1nc(C(N)=O)cn1C1CC2C1`, the figures for the Ki in [3] and in data set [2] were > 1000 nM and 20 nM, respectively.

As to `Cc1cc([C@](C)(O)C#Cc2cc3c(cc2F)C2CC(C2)n2cc(C(N)=O)nc2-3)no1`, the values for the clearance in data set [8] and in data set [12] were 13 mL/min/kg and 24 mL/min/kg, respectively. The results for the Vd in data set [9] and in [10] were 0.84 L/kg and 1.9 L/kg, respectively. Also, the Ki in [3] is > 1000 nM; in [2], 0.4 nM. Moreover, in [11], the Papp at 100 µM was 10.1 ×10⁻⁶ cm/s. Further, the bioavailability in [13] worked out at 27%. The IC50 is 199 nM in [4], > 20000 nM in data set [5] and 102 nM in data set [6]. This compound also had a logD in [1] of 3.3. Besides, the fraction unbound in data set [14] is 0.09. Also, the solubility thermodynamic in [15] worked out at 32 µg/mL (≈ 78.7 µM).

`CN1CCCC(O)(C#Cc2cc3c(cc2F)OCCn2cc(C(N)=O)nc2-3)C1=O` (racemic) displayed a logD in data set [1] of 1.5. This compound had a Ki in data set [2] of 3 nM.

In data set [1], `CN(C)C(=O)C(C)(O)C#Cc1cc2c(cc1F)OCCn1cc(C(N)=O)nc1-2` (centres undefined) displayed a logD of 1.4. In data set [2], this compound displayed an inhibition constant Ki of 986 nM.

On to `CC(C)(O)C#Cc1ccc2c(c1)-c1nc(C(N)=O)sc1C(F)(F)CO2`, for which the figures for the Ki in data set [3] and in data set [2] were > 1000 nM and 40 nM, respectively.

In the case of `CC(C)(O)C#Cc1ccc2c(c1)-c1nc(C(N)=O)sc1C(O)CO2` (racemic), the Ki in data set [3] was > 1000 nM; in data set [2], 101 nM.

Turning to `CC(O)(C#Cc1cc2c(cc1F)OCCn1cc(C(N)=O)nc1-2)c1cccnn1` (racemic), the logD in data set [1] was 1.4. In [2], affinity was put at a Ki of 3.2 nM.

In the case of `CC(O)(C#Cc1cc2c(cc1F)OCCn1cc(C(N)=O)nc1-2)c1nccs1` (racemic), in [1], the logD amounted to 2.4. In data set [2], this compound displayed a Ki of 1.5 nM.

Consider `CNC(=O)c1c(C(N)=O)nc2n1CCOc1ccc(C#C[C@@](C)(O)c3cc(C)on3)cc1-2`, for which the clearance in [8] turned out to be 21 mL/min/kg; in data set [12] it was 7 mL/min/kg; in [18] it was 7 mL/min/kg. The Vd in data set [9] was 1.4 L/kg; in data set [10], 0.9 L/kg; in [16], 1.1 L/kg. For the same compound, the Ki in [3] is > 1000 nM; in [2], 0.47 nM. The Papp at 100 µM in data set [11] was found to be 7.5 ×10⁻⁶ cm/s. For the same compound, the bioavailability in [13] was 51%; in data set [17] it was 140%. For the same compound, the IC50 was 67 to 87 nM in data set [4], 13000 nM in data set [5] and 40 nM in data set [6]. Further, the logD in data set [1] worked out at 3. For the same compound, the fraction unbound in data set [14] is 0.06. For the same compound, the solubility thermodynamic in data set [15] was determined as 9 µg/mL (≈ 20.7 µM).
